According to paper PMC5042876 (Journal of the American Chemical Society, 2016):
Residue numbers refer to the chain shown, from its start.

Legend:
[1] = target: wild-type PntM (CYP161C2) (Streptomyces arenae, UniProt E3VWI3); experiment: Substrate binding assay
PntM F232H = target: T1, PntM F232H (Streptomyces arenae, UniProt E3VWI3, F232H); experiment: Substrate binding assay, PntM F232H; settings: PntM F232H mutant
T1 sequence (E3VWI3 1-398 F232H): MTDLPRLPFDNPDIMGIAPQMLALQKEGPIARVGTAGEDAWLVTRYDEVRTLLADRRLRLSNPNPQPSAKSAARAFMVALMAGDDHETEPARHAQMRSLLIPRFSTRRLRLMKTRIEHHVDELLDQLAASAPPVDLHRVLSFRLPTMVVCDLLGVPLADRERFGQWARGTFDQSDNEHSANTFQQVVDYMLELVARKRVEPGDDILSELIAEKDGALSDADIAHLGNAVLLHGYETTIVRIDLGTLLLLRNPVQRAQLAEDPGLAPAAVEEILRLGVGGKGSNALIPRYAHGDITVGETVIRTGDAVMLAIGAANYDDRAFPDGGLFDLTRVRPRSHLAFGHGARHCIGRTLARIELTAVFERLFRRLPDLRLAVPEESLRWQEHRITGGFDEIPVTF

PntM F232A [2] = target: T2, PntM F232A (Streptomyces arenae, UniProt E3VWI3, F232A); experiment: Steady-state kinetics and product profile, PntM F232A; assay type: biochemical; settings: F232A mutant
T2 sequence (E3VWI3 1-398 F232A): T1 sequence (E3VWI3 1-398 F232H) with H232A

PntM M81C [3] = target: T3, PntM M81C (Streptomyces arenae, UniProt E3VWI3, M81C); experiment: Steady-state kinetics and product profile, PntM M81C; assay type: biochemical; settings: M81C mutant
T3 sequence (E3VWI3 1-398 M81C): T1 sequence (E3VWI3 1-398 F232H) with M81C, H232F

PntM F232A [4] = target: T2, PntM F232A; experiment: Substrate binding assay
PntM F232Y = target: T4, PntM F232Y (Streptomyces arenae, UniProt E3VWI3, F232Y); experiment: Substrate binding assay, PntM F232Y; settings: PntM F232Y mutant
T4 sequence (E3VWI3 1-398 F232Y): T1 sequence (E3VWI3 1-398 F232H) with H232Y

PntM-F232G = target: T5, PntM-F232G (Streptomyces arenae, UniProt E3VWI3, F232G); experiment: Substrate binding assay
T5 sequence (E3VWI3 1-398 F232G): T1 sequence (E3VWI3 1-398 F232H) with H232G

PntM M81C [5] = target: T3, PntM M81C; experiment: Substrate binding assay
PntM M81A [6] = target: T6, PntM M81A (Streptomyces arenae, UniProt E3VWI3, M81A); experiment: Steady-state kinetics and product profile, PntM M81A; assay type: biochemical; settings: M81A mutant
T6 sequence (E3VWI3 1-398 M81A): T1 sequence (E3VWI3 1-398 F232H) with M81A, H232F

PntM M81C-BME [7] = target: T7, PntM M81C-BME (Streptomyces arenae, UniProt E3VWI3, M81C); experiment: Substrate binding assay
T7 sequence (E3VWI3 1-398 M81C): T1 sequence (E3VWI3 1-398 F232H) with M81C, H232F

PntM M77S [8] = target: T8, PntM M77S (Streptomyces arenae, UniProt E3VWI3, M77S); experiment: Substrate binding assay
T8 sequence (E3VWI3 1-398 M77S): T1 sequence (E3VWI3 1-398 F232H) with M77S, H232F

PntM M77S [9] = target: T8, PntM M77S; experiment: Steady-state kinetics and product profile, PntM M77S; assay type: biochemical; settings: M77S mutant
PntM M81C-BME [10] = target: T7, PntM M81C-BME; experiment: Steady-state kinetics and product profile, PntM M81C-BME; assay type: biochemical; settings: M81C-BME mutant
PntM F232L [11] = target: T9, PntM F232L (Streptomyces arenae, UniProt E3VWI3, F232L); experiment: Substrate binding assay
T9 sequence (E3VWI3 1-398 F232L): T1 sequence (E3VWI3 1-398 F232H) with H232L

PntM F232L [12] = target: T9, PntM F232L; experiment: Steady-state kinetics and product profile, PntM F232L; assay type: biochemical; settings: F232L mutant
PntM M81A [13] = target: T6, PntM M81A; experiment: Substrate binding assay
[14] = comparator not stated, figures fit comparison with M81C

wild-type PntM (CYP161C2), sequence (E3VWI3 whole entry): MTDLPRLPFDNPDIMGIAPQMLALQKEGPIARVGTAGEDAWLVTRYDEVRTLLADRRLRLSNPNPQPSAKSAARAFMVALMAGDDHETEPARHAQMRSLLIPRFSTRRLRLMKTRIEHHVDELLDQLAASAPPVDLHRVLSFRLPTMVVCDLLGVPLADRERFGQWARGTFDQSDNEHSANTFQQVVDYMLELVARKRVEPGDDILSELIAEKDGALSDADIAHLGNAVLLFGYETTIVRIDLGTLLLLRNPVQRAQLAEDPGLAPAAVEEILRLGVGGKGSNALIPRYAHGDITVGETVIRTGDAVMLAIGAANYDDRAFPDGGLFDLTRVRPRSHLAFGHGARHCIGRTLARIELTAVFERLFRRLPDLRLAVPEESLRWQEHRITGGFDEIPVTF

**Q.** Which Kd [1] does the source give for `CC1(C)C[C@H]2C[C@@H](C(=O)O)[C@@H]3COC(=O)[C@]4(CO4)[C@]23C1` [compound 7, 6,7-dihydropentalenolactone F] here?
**A.** Its Kd is 170 ± 17 µM.

**Q.** What about the “binding weaker than natural substrate 2” value [1] of the same compound?
**A.** Its value is ~25 times.

**Q.** What about the P450 binding spectrum ([1]; wild-type PntM, UV shift from 420 nm to 390 nm) of the same compound?
**A.** Its P450 binding spectrum is “normal Type I P450 binding spectrum”.

**Q.** Which binding of substrate (PntM F232H) does the source give for `CC1(C)C[C@H]2C=C(C(=O)O)[C@@H]3COC(=O)[C@]4(CO4)[C@]23C1` [compound 2, pentalenolactone F] here?
**A.** Its binding of substrate is “did not bind”.

**Q.** And the “lower kcat/Km than wild type PntM” value (PntM F232A [2])?
**A.** Its value is > 60 fold.

**Q.** And the “product profile (GC-MS)” value (PntM F232A [2])?
**A.** The value was “exclusively pentalenolactone”.

**Q.** And the “product profile (GC-MS)” value (PntM M81C [3])?
**A.** Its value is “exclusive formation of the oxidative rearrangement product 1”.

**Q.** And the “reduction in kcat/Km compared to wild-type” value (PntM M81C [3])?
**A.** The value was 10 fold.

**Q.** What about the Kd [1] of the same compound?
**A.** The Kd was 7.2 ± 0.8 µM.

**Q.** What about the Kd (PntM F232A [4]) of the same compound?
**A.** The Kd was 270 ± 85 µM.

**Q.** And the binding of substrate (PntM F232Y)?
**A.** Its binding of substrate is “did not bind”.

**Q.** And the Kd (PntM-F232G)?
**A.** The Kd was 225 ± 45 µM.

**Q.** And the “KD greater than that of wild-type PntM” value (PntM M81C [5])?
**A.** The value was 4-6 fold.

**Q.** And the Kd (PntM M81C [5])?
**A.** The Kd was 43 ± 3 µM.

**Q.** And the “product profile (GC-MS)” value (PntM M81A [6])?
**A.** Its value is “no change in product profile”.

**Q.** What about the less active (PntM M81A [6]; [14]) of the same compound?
**A.** Its less active is 5-15 fold.

**Q.** What about the “KD greater than that of wild-type PntM” value (PntM M81C-BME [7]) of the same compound?
**A.** The value was 4-6 fold.

**Q.** What about the Kd (PntM M81C-BME [7]) of the same compound?
**A.** The Kd was 31 ± 1 µM.

**Q.** What about the Kd (PntM M77S [8]) of the same compound?
**A.** The Kd was 115 ± 8 µM.

**Q.** And the “product profile (GC-MS)” value (PntM M77S [9])?
**A.** The value was “no change in product profile”.

**Q.** And the less active (PntM M77S [9]; [14])?
**A.** Its less active is 5-15 fold.

**Q.** What about the “product profile (GC-MS)” value (PntM M81C-BME [10]) of the same compound?
**A.** Its value is “no change in product profile”.

**Q.** What about the Kd (PntM F232L [11]) of the same compound?
**A.** The Kd was 160 ± 12 µM.

**Q.** What about the “decrease in kcat compared to wild type PntM” value (PntM F232L [12]) of the same compound?
**A.** The value was 20 fold.

**Q.** And the “reduction in Km compared to wild type PntM” value (PntM F232L [12])?
**A.** The value was 3 fold.

**Q.** What about the “reduction in kcat/Km compared to wild type PntM” value (PntM F232L [12]) of the same compound?
**A.** The value was 7 fold.

**Q.** And the “product profile (GC-MS of total product mixture)” value (PntM F232L [12]; no detectable hydroxylation products)?
**A.** Its value is “only the natural oxidative rearrangement product, pentalenolactone (1)”.

**Q.** What about the Kd (PntM M81A [13]) of the same compound?
**A.** The Kd was 340 ± 90 µM.
